Measurements reported in ChEMBL document CHEMBL1201862, “PubChem BioAssay data set” (2004).
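Assay format: 96-well plates, 48-hour exposure. GI50 is the concentration that inhibits growth by half.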 Activity calls are given as the source filed them. Cut-off read from the data, not from the text of the source: active = GI50 up to about 1.1 µM and inactive = higher.

Experiments:
Assay in all cases: inhibition of tumour cell growth, NCI panel, 48 h
U-251 = tested on: U-251
UACC-62 = tested on: UACC-62
SW-620 = tested on: SW-620
ACHN = tested on: ACHN
OVCAR-8 = tested on: OVCAR-8
UO-31 = tested on: UO-31
DMS-114 = tested on: DMS-114
TK-10 = tested on: TK-10
NCI-H23 = tested on: NCI-H23
KM12 = tested on: KM12
DMS-273 = tested on: DMS-273
A498 = tested on: A498
UACC-257 = tested on: UACC-257
M14 = tested on: M14
RXF 393 = tested on: RXF 393
NCI-H460 = tested on: NCI-H460
SNB-75 = tested on: SNB-75
SR = tested on: SR
HT-29 = tested on: HT-29
SK-MEL-28 = tested on: SK-MEL-28
NCI-H226 = tested on: NCI-H226
K562 = tested on: K562
OVCAR-4 = tested on: OVCAR-4
CAKI-1 = tested on: CAKI-1
A549 = tested on: A549
SF-539 = tested on: SF-539
MOLT-4 = tested on: MOLT-4
IGROV-1 = tested on: IGROV-1
SK-OV-3 = tested on: SK-OV-3
SNB-19 = tested on: SNB-19
786-0 = tested on: 786-0
SNB-78 = tested on: SNB-78
DLD-1 = tested on: DLD-1
SF-295 = tested on: SF-295
LXFL 529 = tested on: LXFL 529
SK-MEL-2 = tested on: SK-MEL-2
SK-MEL-5 = tested on: SK-MEL-5
SN12C = tested on: SN12C
OVCAR-5 = tested on: OVCAR-5
LOX IMVI = tested on: LOX IMVI
KM-20L2 = tested on: KM-20L2
HOP-62 = tested on: HOP-62
HCC 2998 = tested on: HCC 2998
COLO 205 = tested on: COLO 205
HCT-15 = tested on: HCT-15
HOP-92 = tested on: HOP-92
EKVX = tested on: EKVX
M19-MEL = tested on: M19-MEL
OVCAR-3 = tested on: OVCAR-3
HOP-18 = tested on: HOP-18
Malme-3M = tested on: Malme-3M
HL-60 = tested on: HL-60
HCT-116 = tested on: HCT-116
SF-268 = tested on: SF-268
NCI-H522 = tested on: NCI-H522
RPMI-8226 = tested on: RPMI-8226
CCRF-CEM = tested on: CCRF-CEM

Measured: GI50

CC1CC2C3CCC4=CC(=O)C=CC4(C)C3(F)C(O)CC2(C)C1(O)C(=O)CO.Cc1cc(NS(=O)(=O)c2ccc(/N=N\c3cc(/N=N/c4ccc(S(=O)(=O)Nc5cc(C)nc(C)n5)cc4)c(OC(=O)C(Cl)Cl)c4cccc(NC(=O)C(Cl)Cl)c34)cc2)nc(C)n1
15.6 µM: HCT-15
inactive: U-251 18 µM | UACC-62 23.9 µM | SW-620 20.8 µM | ACHN 19.5 µM | OVCAR-8 22.9 µM | UO-31 19.8 µM | DMS-114 27.5 µM | TK-10 42.7 µM | NCI-H23 30.3 µM | KM12 16.6 µM | DMS-273 21.5 µM | A498 27.5 µM | UACC-257 29.9 µM | M14 28.9 µM | RXF 393 23.9 µM | NCI-H460 25.9 µM | SNB-75 42.8 µM | SR 25.4 µM | HT-29 24.4 µM | SK-MEL-28 27 µM | NCI-H226 22.2 µM | K562 30.6 µM | OVCAR-4 19.8 µM | CAKI-1 31.2 µM | A549 27 µM | SF-539 20.9 µM | MOLT-4 27.4 µM | IGROV-1 24.5 µM | SK-OV-3 > 100 µM | SNB-19 16.5 µM | 786-0 18 µM | SNB-78 33.1 µM | DLD-1 18 µM | SF-295 28.2 µM | LXFL 529 10 µM | SK-MEL-2 29.4 µM | SK-MEL-5 2.97 µM | SN12C 12.6 µM | OVCAR-5 16.6 µM | LOX IMVI 19.2 µM | KM-20L2 25.6 µM | HOP-62 35.2 µM | HCC 2998 18.4 µM | COLO 205 28.2 µM | HOP-92 32.5 µM | EKVX 26.2 µM | M19-MEL 30.8 µM | OVCAR-3 18.6 µM | HOP-18 18.8 µM | Malme-3M 20.6 µM | HL-60 16 µM | HCT-116 34.3 µM | SF-268 26.4 µM | NCI-H522 15 µM

COc1ccc(N(C)CN(C)c2nc(N(C)C)nc(N(C)C)n2)cc1
inactive: U-251 > 100 µM | UACC-62 > 100 µM | SW-620 > 100 µM | ACHN > 100 µM | OVCAR-8 > 100 µM | UO-31 > 100 µM | DMS-114 > 100 µM | TK-10 > 100 µM | NCI-H23 > 100 µM | KM12 > 100 µM | DMS-273 > 100 µM | A498 > 100 µM | UACC-257 > 100 µM | M14 > 100 µM | NCI-H460 > 100 µM | SNB-75 > 100 µM | SR > 100 µM | HT-29 > 100 µM | SK-MEL-28 > 100 µM | K562 > 100 µM | RPMI-8226 > 100 µM | OVCAR-4 > 100 µM | CAKI-1 > 100 µM | A549 > 100 µM | CCRF-CEM > 100 µM | SF-539 > 100 µM | MOLT-4 > 100 µM | IGROV-1 > 100 µM | SK-OV-3 > 100 µM | SNB-19 > 100 µM | 786-0 > 100 µM | SNB-78 > 100 µM | DLD-1 > 100 µM | SF-295 > 100 µM | LXFL 529 > 100 µM | SK-MEL-2 > 100 µM | SK-MEL-5 > 100 µM | SN12C > 100 µM | OVCAR-5 > 100 µM | LOX IMVI > 100 µM | KM-20L2 > 100 µM | HOP-62 > 100 µM | COLO 205 > 100 µM | HOP-92 > 100 µM | EKVX > 100 µM | M19-MEL > 100 µM | OVCAR-3 > 100 µM | HOP-18 > 100 µM | Malme-3M > 100 µM | HL-60 > 100 µM | HCT-116 > 100 µM | SF-268 > 100 µM | NCI-H522 > 100 µM
> 100 µM: HCT-15

O=[N+]([O-])c1ccc(N2N=C(c3ccc(NCc4nc5ccccc5[nH]4)cc3)CC2c2ccco2)cc1 (configuration not stated)
inactive: U-251 29.8 µM | UACC-62 19.5 µM | SW-620 34.7 µM | ACHN 22.8 µM | OVCAR-8 18.1 µM | UO-31 6.53 µM | DMS-114 18.1 µM | TK-10 47.2 µM | NCI-H23 19.9 µM | KM12 16.7 µM | DMS-273 21.2 µM | A498 28.8 µM | M14 23.5 µM | RXF 393 42.2 µM | NCI-H460 24.8 µM | SNB-75 27.9 µM | SR 8.85 µM | HT-29 27.5 µM | SK-MEL-28 37.4 µM | K562 20.4 µM | RPMI-8226 12.4 µM | OVCAR-4 20.2 µM | CAKI-1 48.6 µM | A549 34.8 µM | CCRF-CEM 21.6 µM | SF-539 26.1 µM | MOLT-4 10.4 µM | IGROV-1 33 µM | SK-OV-3 82.2 µM | SNB-19 23.4 µM | 786-0 44 µM | DLD-1 29.4 µM | SF-295 23.6 µM | LXFL 529 11.1 µM | SK-MEL-2 > 10 µM | SK-MEL-5 14.2 µM | SN12C 20.3 µM | OVCAR-5 49 µM | LOX IMVI 18.5 µM | HOP-62 37.2 µM | HCC 2998 30.9 µM | COLO 205 30.8 µM | HOP-92 32.2 µM | M19-MEL 29.3 µM | OVCAR-3 21.8 µM | HOP-18 50.5 µM | Malme-3M 28.5 µM | HL-60 17.6 µM | HCT-116 16.2 µM | SF-268 34.8 µM | NCI-H522 15.5 µM
21.3 µM: HCT-15

CCC1=C(C)/C(=C/c2[nH]c(C(Br)Br)c(CC)c2C)N=C1C(Br)Br
inactive: U-251 22.5 µM | UACC-62 31 µM | SW-620 33.1 µM | ACHN 14.6 µM | OVCAR-8 26.6 µM | UO-31 20.7 µM | DMS-114 19 µM | TK-10 41.2 µM | NCI-H23 32.4 µM | KM12 19.1 µM | UACC-257 19.9 µM | M14 55.7 µM | RXF 393 29.9 µM | NCI-H460 26.4 µM | SNB-75 21.6 µM | SR 10.8 µM | HT-29 28.5 µM | SK-MEL-28 45.4 µM | NCI-H226 20.1 µM | K562 24.2 µM | RPMI-8226 9.68 µM | A549 25.2 µM | CCRF-CEM 13.6 µM | SF-539 53 µM | MOLT-4 5.93 µM | IGROV-1 23.9 µM | SK-OV-3 25.4 µM | SNB-19 33.3 µM | 786-0 63.2 µM | SNB-78 33.4 µM | DLD-1 25.6 µM | SF-295 26.1 µM | LXFL 529 31.9 µM | SK-MEL-2 38 µM | SK-MEL-5 16.6 µM | SN12C 31.2 µM | OVCAR-5 > 100 µM | LOX IMVI 21.2 µM | KM-20L2 41 µM | HOP-62 28.6 µM | HCC 2998 12.8 µM | COLO 205 5.87 µM | HOP-92 74.1 µM | EKVX 30.1 µM | M19-MEL 20.9 µM | OVCAR-3 23.2 µM | HOP-18 84.9 µM | Malme-3M 35 µM | HL-60 16.9 µM | HCT-116 23.8 µM | SF-268 73.3 µM | NCI-H522 13 µM
28.2 µM: HCT-15

C=CCCCCn1c2ccccc2c2c(C)c3c[n+](C)ccc3c(C)c21
active: U-251 0.197 µM | UACC-62 0.336 µM | SW-620 0.296 µM | OVCAR-8 0.197 µM | DMS-114 0.118 µM | NCI-H23 0.382 µM | KM12 0.392 µM | UACC-257 0.391 µM | M14 0.979 µM | RXF 393 0.684 µM | NCI-H460 0.356 µM | SNB-75 0.713 µM | SR 0.284 µM | HT-29 0.271 µM | SK-MEL-28 0.426 µM | NCI-H226 0.212 µM | K562 0.281 µM | RPMI-8226 0.212 µM | OVCAR-4 0.284 µM | A549 0.3 µM | CCRF-CEM 0.335 µM | SF-539 0.564 µM | MOLT-4 0.298 µM | IGROV-1 0.252 µM | SNB-19 0.412 µM | 786-0 0.752 µM | SNB-78 0.387 µM | DLD-1 0.607 µM | SF-295 0.208 µM | LXFL 529 0.176 µM | SK-MEL-2 0.396 µM | SK-MEL-5 0.329 µM | SN12C 0.234 µM | OVCAR-5 1.07 µM | LOX IMVI 0.284 µM | KM-20L2 0.352 µM | HOP-62 0.643 µM | COLO 205 0.25 µM | HOP-92 0.237 µM | M19-MEL 0.296 µM | OVCAR-3 0.288 µM | HOP-18 0.0912 µM | Malme-3M 0.275 µM | HL-60 0.171 µM | HCT-116 0.244 µM | SF-268 0.366 µM | NCI-H522 0.176 µM
inactive: ACHN 2.68 µM | UO-31 5.28 µM | TK-10 1.86 µM | A498 1.44 µM | CAKI-1 14.3 µM | SK-OV-3 1.2 µM
